Test results as given in US10774064B2 (Cadent Therapeutics, Inc., priority 2016, dated 2020).

Biological target: T1, small-conductance Ca2+-activated K+ channels (SK channels, subtype 2) (Homo sapiens, UniProt Q9H2S1)
T1 construct: expressed in transfected cells; host or cells: HEK293
Assay: whole-cell patch-clamp of ionic current through SK2 channels in HEK293 cells (SC100)
Format: cell-based
Conditions: whole-cell patch-clamp, HEK293 cells expressing SK2 channels; concentration that increases the basal current by 100%
Procedure, shortened: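 Whole-cell patch-clamp recording of current in HEK293 cells expressing SK2 channels. SC100 is the compound concentration that increases basal current by 100%.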

SC100 (μM)	Structure (SMILES)
++ (++ means 200 nM-1000 nM)	Cc1csc(-c2nc(NC3CCC(F)(F)CC3)cc(-c3ccccc3)n2)n1 [IN11218-030-P1]
++ (++ means 200 nM-1000 nM)	Cc1csc(-c2nc(NC3CCC(F)(F)CC3)cc(C(C)(C)C)n2)n1 [IN11220-039-P1, 6-(tert-butyl)-N-(4,4-difluorocyclohexyl)-2-(4-methylthiazol-2-yl)pyrimidin-4-amine]
+ (+ means >1 uM)	Cc1ccnn1-c1nc(NC2CCC(F)(F)CC2)cc(N2CCOCC2)n1 [IN11237-056-P1]
+ (+ means >1 uM)	CCOC(=O)c1cnc(-c2nc(C)cs2)nc1NC1CCC(F)(F)CC1 [IN11238-035-P1, ethyl 4-((4,4-difluorocyclohexyl)amino)-2-(4-methylthiazol-2-yl)pyrimidine-5-carboxylate]
+ (+ means >1 uM)	Cc1csc(-c2ncc(CO)c(NC3CCC(F)(F)CC3)n2)n1 [IN11238-040-P1, (4-((4,4-difluorocyclohexyl)amino)-2-(4-methylthiazol-2-yl)pyrimidin-5-yl) methanol]
+ (+ means >1 uM)	COCc1cnc(-c2nc(C)cs2)nc1NC1CCC(F)(F)CC1 [IN11238-046-P1]
++ (++ means 200 nM-1000 nM)	NC(=O)OCc1cc(NC2CCC(F)(F)CC2)nc(-n2ccc(C3CC3)n2)n1 [IN11239-001-P1, (2-(3-cyclopropyl-1H-pyrazol-1-yl)-6-((4,4-difluorocyclohexyl)amino)pyrimidin-4-yl)methyl carbamate]
+ (+ means >1 uM)	Cc1csc(-c2nc(C)cc(NC3CCC(F)(F)CC3)n2)c1 [IN11239-029-P1, N-(4,4-difluorocyclohexyl)-6-methyl-2-(4-methylthiophen-2-yl)pyrimidin-4-amine]
+ (+ means >1 uM)	CC(=O)c1ccn(-c2nc(NC3CCC(F)(F)CC3)cc(N3CCOCC3)n2)n1 [IN11243-031-P1]
+++ (+++ means <200 nM)	CC(F)c1ccn(-c2nc(NC3CCC(F)(F)CC3)cc(N3CCOCC3)n2)n1 (centres unmarked) [IN11243-041-P1]
++ (++ means 200 nM-1000 nM)	Cc1cc(NC2CCC(F)(F)CC2)nc(-n2ccc(C(C)F)n2)n1 (centres unmarked) [IN11243-042-P1, N-(4,4-difluorocyclohexyl)-2-(3-(1-fluoroethyl)-1H-pyrazol-1-yl)-6-methylpyrimidin-4-amine]
++ (++ means 200 nM-1000 nM)	CC(F)(F)c1ccn(-c2nc(NC3CCC(F)(F)CC3)cc(N3CCOCC3)n2)n1 [IN11243-050-P2]
+ (+ means >1 uM)	Cc1cc(NC2CCC(F)(F)CC2)nc(-n2ccc(C3=CCCC3)n2)n1 [IN11250-007-P1, 2-(3-(cyclopent-1-en-1-yl)-1H-pyrazol-1-yl)-N-(4,4-difluorocyclohexyl)-6-methylpyrimidin-4-amine]
+ (+ means >1 uM)	Cc1cc(NC2CCC(F)(F)CC2)nc(-n2ccc(C3CCCC3)n2)n1 [IN11250-017-P1, 2-(3-cyclopentyl-1H-pyrazol-1-yl)-N-(4,4-difluorocyclohexyl)-6-methylpyrimidin-4-amine]
+ (+ means >1 uM)	C=Cc1ccn(-c2nc(C)cc(NC3CCC(F)(F)CC3)n2)n1 [IN11250-031-P1]
++ (++ means 200 nM-1000 nM)	Cc1ccn(-c2nc(NCCO)cc(NC3CCC(F)(F)CC3)n2)n1 [IN11250-032-P1]
+ (+ means >1 uM)	Cc1cc(NC2CCC(F)(F)CC2)nc(-n2ccc(C3(O)CC3)n2)n1 [IN11251-011-P1, 1-(1-(4-((4,4-difluorocyclohexyl)amino)-6-methylpyrimidin-2-yl)-1H-pyrazol-3-yl)cyclopropan-1-ol]
+ (+ means >1 uM)	CCC(O)c1ccn(-c2nc(C)cc(NC3CCC(F)(F)CC3)n2)n1 (centres unmarked) [IN11251-011-P2, 1-(1-(4-((4,4-difluorocyclohexyl)amino)-6-methylpyrimidin-2-yl)-1H-pyrazol-3-yl)propan-1-ol]
+ (+ means >1 uM)	Cc1cc(NC2CCC(F)(F)CC2)nc(-n2ccc(C(=O)OC(C)C)n2)n1 [IN11251-020-P1, isopropyl 1-(4-((4,4-difluorocyclohexyl)amino)-6-methylpyrimidin-2-yl)-1H-pyrazole-3-carboxylate]
++ (++ means 200 nM-1000 nM)	COC(=O)N1CCC(O)(c2cc(NC3CCC(F)(F)CC3)nc(-n3ccc(C)n3)c2)C1 (centres unmarked) [IN11251-035-P1, methyl 3-(2-((4,4-difluorocyclohexyl)amino)-6-(3-methyl-1H-pyrazol-1-yl)pyridin-4-yl)-3-hydroxypyrrolidine-1-carboxylate]
++ (++ means 200 nM-1000 nM)	COC(=O)N(C)Cc1cc(NC2CCC(F)(F)CC2)nc(-c2nc(C)cs2)c1 [IN11251-043-P1]
+ (+ means >1 uM)	Cc1cc(NC2CCC(F)(F)CC2)nc(CO)n1 [IN11273-001-P1, (4-((4,4-difluorocyclohexyl)amino)-6-methylpyrimidin-2-yl) methanol]
+ (+ means >1 uM)	COC(=O)c1nc(C)cc(NC2CCC(F)(F)CC2)n1 [IN11273-006-P1, methyl 4-((4,4-difluorocyclohexyl)amino)-6-methylpyrimidine-2-carboxylate]
+ (+ means >1 uM)	Cc1cc(NC2CCC(F)(F)CC2)nc(Cn2ccc(C)n2)n1 [IN11273-015-P1, N-(4,4-difluorocyclohexyl)-6-methyl-2-((3-methyl-1H-pyrazol-1-yl)methyl)pyrimidin-4-amine]
+ (+ means >1 uM)	Cc1cc(NC2CCC(F)(F)CC2)nc(Cn2nccc2C)n1 [IN11273-015-P2, N-(4,4-difluorocyclohexyl)-6-methyl-2-((5-methyl-1H-pyrazol-1-yl)methyl)pyrimidin-4-amine]

Continued, molecule first:

Structure (SMILES)	SC100 (μM)
Cc1csc(-c2nc(NC3CCC(F)(F)CC3)cc(=O)n2CC#N)n1 [IN11196-007-P2, 2-(4-((4,4-difluorocyclohexyl)amino)-2-(4-methylthiazol-2-yl)-6-oxopyrimidin-1(6H)-yl)acetonitrile]	+ (+ means >1 uM)
COC(C)c1cc(NC2CCC(F)(F)CC2)nc(-n2ccc(C3CC3)n2)n1 (centres unmarked) [IN11196-026-P1, 2-(3-cyclopropyl-1H-pyrazol-1-yl)-N-(4,4-difluorocyclohexyl)-6-(1-methoxyethyl)pyrimidin-4-amine]	+ (+ means >1 uM)
[2H]C1([2H])OC([2H])([2H])C([2H])([2H])N(c2cc(NC3CCC(F)(F)CC3)nc(-n3ccc(C)n3)n2)C1([2H])[2H] [IN11196-039-P1]	++ (++ means 200 nM-1000 nM)
CC1=NN(c2nc(NC3CCC(F)(F)CC3)cc(N3CCOCC3)n2)CC1 [IN11196-041-P1, N-(4,4-difluorocyclohexyl)-2-(3-methyl-4,5-dihydro-1H-pyrazol-1-yl)-6-morpholinopyrimidin-4-amine]	+ (+ means >1 uM)
COc1c(NC2CCC(F)(F)CC2)nc(-c2nc(C)cs2)n(CC#N)c1=O [IN11196-065-P1]	+ (+ means >1 uM)
Cc1csc(-c2nc(NC3CCC(F)(F)CC3)cc(-c3ccccn3)n2)n1 [IN11196-080-P1]	+ (+ means >1 uM)
Cc1ccc(-c2nc(NC3CCC(F)(F)CC3)cc(N3CCOCC3)n2)[nH]1 [IN11196-081-P1, N-(4,4-difluorocyclohexyl)-2-(5-methyl-1H-pyrrol-2-yl)-6-morpholino pyrimidin-4-amine]	+ (+ means >1 uM)
Cc1cc(NC2CCC(F)(F)CC2)nc(-n2cc3c(n2)CCC3)n1 [IN11216-001-P1]	+ (+ means >1 uM)
CCOC(=O)c1cn(-c2nc(NC3CCC(F)(F)CC3)cc(N3CCOCC3)n2)nc1C [IN11216-043-P1]	+ (+ means >1 uM)
Cc1nn(-c2nc(NC3CCC(F)(F)CC3)cc(N3CCOCC3)n2)cc1F [IN11216-050-P1]	++ (++ means 200 nM-1000 nM)
Cc1cc(NC2CCC(F)(F)CC2)nc(-n2cc(-n3cc(F)c(C)n3)c(C)n2)n1 [IN11216-072-P1]	+ (+ means >1 uM)
COc1nn(-c2nc(NC3CCC(F)(F)CC3)cc(N3CCOCC3)n2)cc1F [IN11216-073-P1]	+++ (+++ means <200 nM)
FC1(F)CCC(Nc2cc(N3CCCOCC3)nc(-n3ccc(C4CC4)n3)n2)CC1 [IN11217-003-P1, 2-(3-cyclopropyl-1H-pyrazol-1-yl)-N-(4,4-difluorocyclohexyl)-6-(1,4-oxazepan-4-yl)pyrimidin-4-amine]	++ (++ means 200 nM-1000 nM)
Cc1ccn(-c2cc(COc3cccnn3)cc(NC3CCC(F)(F)CC3)n2)n1 [IN11217-056-P1, N-(4,4-difluorocyclohexyl)-6-(3-methyl-1H-pyrazol-1-yl)-4-((pyridazin-3-yloxy)methyl)pyridin-2-amine]	++ (++ means 200 nM-1000 nM)
OC(c1cc(NC2CCC(F)(F)CC2)nc(-n2ccc(C3CC3)n2)n1)C(F)(F)F (centres unmarked) [IN11217-068-P1, 1-(2-(3-cyclopropyl-1H-pyrazol-1-yl)-6-((4,4-difluorocyclohexyl)amino)pyrimidin-4-yl)-2,2,2-trifluoroethan-1-ol]	+ (+ means >1 uM)
CCOCCc1cc(NC2CCC(F)(F)CC2)nc(-n2ccc(C3CC3)n2)n1 [IN11217-069-P1, 2-(3-cyclopropyl-1H-pyrazol-1-yl)-N-(4,4-difluorocyclohexyl)-6-(2-ethoxyethyl)pyrimidin-4-amine]	+ (+ means >1 uM)
COc1cc(C)n(-c2nc(NC3CCC(F)(F)CC3)cc(N3CCOCC3)n2)n1 [IN11217-088-P1]	+ (+ means >1 uM)
CC(=O)N1CCC(Oc2cc(NC3CCC(F)(F)CC3)nc(-n3ccc(C)n3)c2)CC1 [IN11218-025-P1, 1-(4-((2-((4,4-difluorocyclohexyl)amino)-6-(3-methyl-1H-pyrazol-1-yl)pyridin-4-yl)oxy)piperidin-1-yl)ethan-1-one]	++ (++ means 200 nM-1000 nM)
Cc1cc(NC2CCC(F)(F)CC2)nc(-n2ccc(C3(N)CC3)n2)n1 [IN11218-026-P1, 2-(3-(1-aminocyclopropyl)-1H-pyrazol-1-yl)-N-(4,4-difluorocyclohexyl)-6-methylpyrimidin-4-amine hydrogen chloride]	+ (+ means >1 uM)
